Reference: ChEMBL document CHEMBL1201862, “PubChem BioAssay data set” (2004)
Each block holds one compound with its values, some of them ahead of it. Active and inactive are the calls of the source.

Key:
Protein Tat = Protein Tat (Human immunodeficiency virus type 1 group M subtype B (isolate HXB2)(HIV-1), UniProt P04608); format: functional;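 note: tat binding to TAR RNA read out by fluorescence polarization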
[1] = HIV-1 Vif–A3G interaction blockers – biochemical, TR-FRET, GST-Vif 1-94, biotin-A3G peptide, dose response retest, primary screen (AID 1117319); format: functional;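 note: TR-FRET signal of purified GST-Vif binding a biotinylated A3G peptide; inhibitors lower the FRET signal by blocking Vif and A3G binding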
[2] = target: T1, Sentrin-specific protease 8 (Homo sapiens, UniProt Q96LD8); format: functional;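 note: luminescence read-out of SENP8 inhibition, dose-response confirmation following an ultra-high-throughput screen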
T1 sequence (Q96LD8 whole entry): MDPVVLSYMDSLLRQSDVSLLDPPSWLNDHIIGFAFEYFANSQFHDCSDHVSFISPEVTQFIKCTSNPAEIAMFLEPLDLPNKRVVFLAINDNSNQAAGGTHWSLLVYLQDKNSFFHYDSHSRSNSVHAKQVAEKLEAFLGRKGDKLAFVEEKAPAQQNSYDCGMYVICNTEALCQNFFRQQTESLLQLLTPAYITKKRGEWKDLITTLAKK

[3] = target: T2, Sentrin-specific protease 7 (Homo sapiens, UniProt Q9BQF6); format: functional;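 note: Luminescence-based dose-response confirmation of ultra-high-throughput screening hits, measuring inhibition of SENP7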
T2 sequence (Q9BQF6 whole entry): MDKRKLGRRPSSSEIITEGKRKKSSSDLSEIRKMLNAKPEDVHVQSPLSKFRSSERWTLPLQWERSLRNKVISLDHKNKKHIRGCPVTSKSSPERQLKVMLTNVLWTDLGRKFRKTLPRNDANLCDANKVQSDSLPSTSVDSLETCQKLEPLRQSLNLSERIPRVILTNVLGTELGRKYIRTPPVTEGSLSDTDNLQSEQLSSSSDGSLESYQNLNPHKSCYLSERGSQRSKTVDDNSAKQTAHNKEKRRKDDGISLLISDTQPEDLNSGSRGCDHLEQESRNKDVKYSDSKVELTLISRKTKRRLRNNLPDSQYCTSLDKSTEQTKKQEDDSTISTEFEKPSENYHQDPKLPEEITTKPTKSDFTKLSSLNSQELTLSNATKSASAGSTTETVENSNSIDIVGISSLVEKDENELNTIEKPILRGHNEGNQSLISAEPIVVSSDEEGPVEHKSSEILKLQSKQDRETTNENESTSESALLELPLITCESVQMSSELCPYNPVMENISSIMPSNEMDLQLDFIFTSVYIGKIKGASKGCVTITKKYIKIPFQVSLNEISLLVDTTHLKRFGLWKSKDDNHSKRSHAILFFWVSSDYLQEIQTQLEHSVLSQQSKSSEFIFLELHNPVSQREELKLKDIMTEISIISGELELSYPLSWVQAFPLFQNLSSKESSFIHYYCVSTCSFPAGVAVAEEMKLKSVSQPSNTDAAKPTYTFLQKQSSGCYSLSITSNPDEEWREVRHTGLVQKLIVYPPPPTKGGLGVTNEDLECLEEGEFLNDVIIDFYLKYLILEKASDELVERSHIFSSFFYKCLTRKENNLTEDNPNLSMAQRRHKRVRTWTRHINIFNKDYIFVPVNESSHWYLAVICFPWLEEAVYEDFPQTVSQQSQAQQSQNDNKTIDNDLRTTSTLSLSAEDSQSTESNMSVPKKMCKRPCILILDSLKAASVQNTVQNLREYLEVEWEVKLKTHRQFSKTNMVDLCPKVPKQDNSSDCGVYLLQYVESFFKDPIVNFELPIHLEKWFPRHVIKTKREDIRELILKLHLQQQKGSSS

Caspase-3 = target: T3, Caspase-3 (Homo sapiens, UniProt P42574); format: functional;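 note: Dose-response selectivity test against caspase-3 for candidate inhibitors of sentrin-specific proteases (SENPs)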
T3 sequence (P42574 whole entry): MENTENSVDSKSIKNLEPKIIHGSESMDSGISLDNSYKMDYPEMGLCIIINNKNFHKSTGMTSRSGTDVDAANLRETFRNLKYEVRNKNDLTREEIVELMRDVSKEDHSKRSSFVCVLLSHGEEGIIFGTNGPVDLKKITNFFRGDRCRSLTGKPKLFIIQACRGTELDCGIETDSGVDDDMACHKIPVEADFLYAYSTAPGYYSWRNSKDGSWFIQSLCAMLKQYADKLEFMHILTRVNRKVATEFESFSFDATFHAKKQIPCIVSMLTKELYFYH

[4] = target: NAD-dependent protein deacylase sirtuin-5, mitochondrial (Homo sapiens, UniProt Q9NXA8); experiment: sirtuin-5 deacylation blockers, concentration series – biochemical, fluorescence imaging, cherry-pick, set 5, dose response (AID 720591);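 note: desuccinylation of succinyl peptide AMC substrate read as fluorescence after trypsin release; potency of inhibitors that lower fluorescence and may act on trypsin instead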
NAD-dependent protein deacylase sirtuin-5, mitochondrial, sequence (Q9NXA8 whole entry): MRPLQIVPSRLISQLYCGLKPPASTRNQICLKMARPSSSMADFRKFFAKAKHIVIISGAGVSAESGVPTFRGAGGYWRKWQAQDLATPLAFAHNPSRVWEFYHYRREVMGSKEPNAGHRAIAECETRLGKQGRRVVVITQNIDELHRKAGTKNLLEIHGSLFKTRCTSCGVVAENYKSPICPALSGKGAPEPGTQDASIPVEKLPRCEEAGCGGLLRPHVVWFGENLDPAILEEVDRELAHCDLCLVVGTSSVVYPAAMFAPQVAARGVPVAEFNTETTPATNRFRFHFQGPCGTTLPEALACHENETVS

[5] = target: T4, Sentrin-specific protease 6 (Homo sapiens, UniProt Q9GZR1); format: functional;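 note: Luminescence-based dose-response confirmatory assay of SENP6 inhibition, following up an ultra-high-throughput screen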
T4 sequence (Q9GZR1 whole entry): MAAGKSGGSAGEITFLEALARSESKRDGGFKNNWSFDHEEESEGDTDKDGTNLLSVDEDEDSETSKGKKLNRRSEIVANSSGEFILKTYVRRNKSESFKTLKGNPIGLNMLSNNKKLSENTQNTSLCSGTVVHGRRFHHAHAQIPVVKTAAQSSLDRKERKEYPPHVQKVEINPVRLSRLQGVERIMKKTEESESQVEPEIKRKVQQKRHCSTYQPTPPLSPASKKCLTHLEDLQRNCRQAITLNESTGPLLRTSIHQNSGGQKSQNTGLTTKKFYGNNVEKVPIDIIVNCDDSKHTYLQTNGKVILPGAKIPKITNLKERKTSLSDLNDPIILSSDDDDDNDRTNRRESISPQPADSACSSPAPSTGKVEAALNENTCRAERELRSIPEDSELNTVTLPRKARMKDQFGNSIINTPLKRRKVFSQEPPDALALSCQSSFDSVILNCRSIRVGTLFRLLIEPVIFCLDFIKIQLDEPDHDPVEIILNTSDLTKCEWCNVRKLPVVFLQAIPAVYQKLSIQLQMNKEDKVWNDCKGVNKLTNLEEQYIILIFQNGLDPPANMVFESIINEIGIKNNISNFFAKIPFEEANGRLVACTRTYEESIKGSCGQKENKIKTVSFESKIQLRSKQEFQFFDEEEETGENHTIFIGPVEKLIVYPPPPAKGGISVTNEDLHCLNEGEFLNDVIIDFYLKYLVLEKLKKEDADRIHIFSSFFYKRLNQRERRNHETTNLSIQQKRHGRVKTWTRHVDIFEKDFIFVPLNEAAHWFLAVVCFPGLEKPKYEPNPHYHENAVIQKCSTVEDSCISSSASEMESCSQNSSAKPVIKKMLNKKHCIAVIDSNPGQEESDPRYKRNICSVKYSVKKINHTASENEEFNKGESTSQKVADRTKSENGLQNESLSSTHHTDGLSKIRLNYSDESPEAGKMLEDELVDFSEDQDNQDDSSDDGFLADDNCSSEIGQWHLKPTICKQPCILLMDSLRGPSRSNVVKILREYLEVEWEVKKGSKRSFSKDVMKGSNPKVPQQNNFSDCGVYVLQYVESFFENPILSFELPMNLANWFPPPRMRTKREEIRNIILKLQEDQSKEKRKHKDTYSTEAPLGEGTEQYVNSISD

[6] = target: T5, Oxysterols receptor LXR-beta (Homo sapiens, UniProt P55055); format: functional, cell-based;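 note: Cell-based luminescence dose-response assay of agonist activity at LXR, run as a confirmatory counterscreen to a daf-12 agonist screen; agonist potency from rising luciferase signal of a Gal4-LXR reporter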
T5 sequence (P55055 whole entry): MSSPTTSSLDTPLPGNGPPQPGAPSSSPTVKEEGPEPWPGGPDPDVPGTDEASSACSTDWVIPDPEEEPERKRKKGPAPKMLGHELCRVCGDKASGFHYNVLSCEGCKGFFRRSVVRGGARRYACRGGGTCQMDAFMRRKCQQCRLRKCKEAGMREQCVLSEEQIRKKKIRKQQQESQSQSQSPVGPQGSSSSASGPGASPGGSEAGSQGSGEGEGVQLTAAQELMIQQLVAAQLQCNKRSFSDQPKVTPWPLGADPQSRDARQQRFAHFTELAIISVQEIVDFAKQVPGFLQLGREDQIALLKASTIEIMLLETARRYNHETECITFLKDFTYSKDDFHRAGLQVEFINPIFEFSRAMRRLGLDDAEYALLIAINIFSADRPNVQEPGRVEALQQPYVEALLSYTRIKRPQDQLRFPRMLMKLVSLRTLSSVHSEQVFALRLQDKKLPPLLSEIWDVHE

cells [7] = experiment: cells
[8] = target: T6, Dual specificity protein phosphatase 6 (Rattus norvegicus, UniProt Q64346); experiment: inhibition of rat DUSP6 enzyme activity – biochemical, in vitro, primary screen (AID 425)
T6 sequence (Q64346 whole entry): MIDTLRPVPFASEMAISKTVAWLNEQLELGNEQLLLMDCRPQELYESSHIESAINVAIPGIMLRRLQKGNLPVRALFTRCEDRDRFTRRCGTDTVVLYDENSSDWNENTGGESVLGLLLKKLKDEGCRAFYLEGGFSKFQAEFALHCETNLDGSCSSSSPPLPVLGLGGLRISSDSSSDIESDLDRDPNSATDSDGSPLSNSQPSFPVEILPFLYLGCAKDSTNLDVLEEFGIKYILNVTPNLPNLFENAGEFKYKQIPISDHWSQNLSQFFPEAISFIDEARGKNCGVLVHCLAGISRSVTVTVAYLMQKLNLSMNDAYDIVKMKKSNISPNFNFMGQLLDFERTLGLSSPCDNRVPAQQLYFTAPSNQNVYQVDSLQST

Estrogen receptor beta = Estrogen receptor beta (Homo sapiens, UniProt Q92731);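 note: recombinant ER-beta bound to coactivator SRC1 peptide in presence of estradiol agonist; inhibitors block coactivator peptide binding and lower the FRET signal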
[9] = target: T5, Oxysterols receptor LXR-beta; experiment: LXR agonists, Gal4 luciferase reporter, dose response, counter-screen for ssDAF-12 agonist project, cell-based, luminescence, HEK293, S. stercoralis campaign (AID 720737); format: functional; conditions: read-out: IC50 (the source's name)
[10] = Luminescence-based cell-based high throughput dose response assay to identify activators of the DAF-12 from the parasite S. stercoralis (ssDAF-12).; format: functional
cells [11] = experiment: cells; remark: listed apart in the source
[12] = NIH3T3 cell viability loss – ATP luminescence, mouse fibroblasts, counter-screen, dose response (AID 2010); format: functional, cell-based;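 note: cells exposed to compound for about 90 hours before reading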
[13] = Trypanosoma cruzi growth suppression in host cells – NIH3T3 host cells, beta-gal luminescence, confirmation (AID 2044); format: functional, cell-based;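 note: intracellular parasites grown in NIH/3T3 mouse fibroblasts as host cells; luminescent beta-galactosidase reporter signal from transgenic T. cruzi replicating inside host cells; inhibitors lower the luminescence signal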
[14] = target: Mitogen-activated protein kinase 10 (Homo sapiens, UniProt P53779); experiment: Dose response biochemical screening assay for inhibitors of c-Jun N-Terminal Kinase 3 (JNK3). [Related pubchem assays: 746 ]
Cytochrome P450 2D6 = Cytochrome P450 2D6 (Homo sapiens, UniProt P10635);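 note: CYP2D6 member of a cytochrome P450 panel assay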
[15] = blockers of bursicon-stimulated LGR2 cAMP reporter – cell-based, HEK293, CRE-luciferase reporter, cherry pick, set 2, dose response (AID 743343); format: functional;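 note: transfected cells were stimulated with diluted bursicon conditioned medium after compound addition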
[16] = toxicity toward HepG2 liver cells – cell-based, plate reader, cherry-pick, antagonist series, cytotoxicity control, dose response (AID 743416); format: functional
[17] = blockade of melanocortin 4 receptor signaling – cell-based, plate reader, cherry pick, counter-screen for LGR2 antagonist project, dose response (AID 743444); format: functional;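 note: transfected HEK 293 cells stimulated with alpha-MSH peptide; potency of inhibitors of the alpha-MSH evoked signal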
[18] = A549 cell cytotoxicity, dose response, cytotoxicity control, plate reader, cherry-pick, antagonist series (AID 743412); format: functional, cell-based
[19] = target: Peroxisome proliferator-activated receptor gamma/Nuclear receptor coactivator 1 (Homo sapiens, UniProt P37231); format: functional;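 note: agonist potency as compounds enhance coactivator SRC-1 recruitment to PPARgamma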
Peroxisome proliferator-activated receptor gamma/Nuclear receptor coactivator 1, sequence (P37231 whole entry): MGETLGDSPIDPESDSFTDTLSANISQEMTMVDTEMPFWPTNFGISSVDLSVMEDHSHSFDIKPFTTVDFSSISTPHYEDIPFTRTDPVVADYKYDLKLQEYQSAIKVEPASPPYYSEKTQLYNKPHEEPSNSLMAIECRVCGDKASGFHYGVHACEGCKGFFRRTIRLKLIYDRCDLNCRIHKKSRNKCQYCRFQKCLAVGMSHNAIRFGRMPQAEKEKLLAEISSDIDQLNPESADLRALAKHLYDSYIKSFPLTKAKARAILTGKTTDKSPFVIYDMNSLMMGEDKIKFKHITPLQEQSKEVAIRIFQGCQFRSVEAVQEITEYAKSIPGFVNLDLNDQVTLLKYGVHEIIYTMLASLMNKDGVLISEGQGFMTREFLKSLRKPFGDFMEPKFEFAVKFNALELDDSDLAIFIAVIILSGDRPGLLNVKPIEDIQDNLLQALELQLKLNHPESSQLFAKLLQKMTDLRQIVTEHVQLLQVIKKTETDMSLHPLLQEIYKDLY
Peroxisome proliferator-activated receptor gamma/Nuclear receptor coactivator 1, sequence (Q15788 whole entry, further chain): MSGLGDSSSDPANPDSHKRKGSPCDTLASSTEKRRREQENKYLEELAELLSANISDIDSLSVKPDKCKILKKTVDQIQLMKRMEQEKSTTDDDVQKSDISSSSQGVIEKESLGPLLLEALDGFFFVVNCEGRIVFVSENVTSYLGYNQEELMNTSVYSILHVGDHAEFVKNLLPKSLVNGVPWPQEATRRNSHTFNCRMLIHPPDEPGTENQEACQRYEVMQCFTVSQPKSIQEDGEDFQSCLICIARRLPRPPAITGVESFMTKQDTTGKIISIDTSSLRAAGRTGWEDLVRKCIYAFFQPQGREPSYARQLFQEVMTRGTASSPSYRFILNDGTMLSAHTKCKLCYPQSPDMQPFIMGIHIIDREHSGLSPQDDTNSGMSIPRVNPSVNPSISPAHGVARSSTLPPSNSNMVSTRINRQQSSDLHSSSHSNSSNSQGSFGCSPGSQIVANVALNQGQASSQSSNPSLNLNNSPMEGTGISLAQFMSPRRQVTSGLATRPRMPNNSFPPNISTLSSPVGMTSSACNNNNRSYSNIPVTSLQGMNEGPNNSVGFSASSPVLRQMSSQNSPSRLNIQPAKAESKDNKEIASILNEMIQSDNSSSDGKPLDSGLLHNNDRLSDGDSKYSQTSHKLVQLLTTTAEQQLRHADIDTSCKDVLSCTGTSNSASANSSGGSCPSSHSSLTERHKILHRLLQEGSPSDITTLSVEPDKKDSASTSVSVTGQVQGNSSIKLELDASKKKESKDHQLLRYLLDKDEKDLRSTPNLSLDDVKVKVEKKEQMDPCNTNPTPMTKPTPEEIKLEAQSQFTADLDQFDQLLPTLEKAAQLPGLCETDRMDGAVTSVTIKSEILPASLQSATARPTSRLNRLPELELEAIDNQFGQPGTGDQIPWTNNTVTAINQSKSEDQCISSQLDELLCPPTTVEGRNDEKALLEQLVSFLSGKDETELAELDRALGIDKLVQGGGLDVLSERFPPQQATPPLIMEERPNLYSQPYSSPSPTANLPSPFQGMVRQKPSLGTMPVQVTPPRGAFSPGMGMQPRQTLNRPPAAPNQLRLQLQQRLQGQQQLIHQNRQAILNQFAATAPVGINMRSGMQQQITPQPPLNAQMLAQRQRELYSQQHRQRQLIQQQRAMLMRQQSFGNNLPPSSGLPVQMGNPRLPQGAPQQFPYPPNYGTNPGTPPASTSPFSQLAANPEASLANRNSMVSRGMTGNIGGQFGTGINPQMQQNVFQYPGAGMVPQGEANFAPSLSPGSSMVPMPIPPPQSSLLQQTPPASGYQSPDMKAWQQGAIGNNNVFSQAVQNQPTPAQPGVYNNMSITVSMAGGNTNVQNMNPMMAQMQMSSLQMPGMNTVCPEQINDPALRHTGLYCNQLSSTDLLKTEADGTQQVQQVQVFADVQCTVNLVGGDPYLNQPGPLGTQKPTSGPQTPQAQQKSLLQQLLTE

Cytochrome P450 2C19 [20] = target: T7, Cytochrome P450 2C19 (Homo sapiens, UniProt P33261); experiment: Cytochrome panel assay with activity outcomes. Panel member name: p450-cyp2c19 Compounds with AC50 equal or less than 10 uM are considered active; format: functional; conditions: read-out: AC50
T7 sequence (P33261 whole entry): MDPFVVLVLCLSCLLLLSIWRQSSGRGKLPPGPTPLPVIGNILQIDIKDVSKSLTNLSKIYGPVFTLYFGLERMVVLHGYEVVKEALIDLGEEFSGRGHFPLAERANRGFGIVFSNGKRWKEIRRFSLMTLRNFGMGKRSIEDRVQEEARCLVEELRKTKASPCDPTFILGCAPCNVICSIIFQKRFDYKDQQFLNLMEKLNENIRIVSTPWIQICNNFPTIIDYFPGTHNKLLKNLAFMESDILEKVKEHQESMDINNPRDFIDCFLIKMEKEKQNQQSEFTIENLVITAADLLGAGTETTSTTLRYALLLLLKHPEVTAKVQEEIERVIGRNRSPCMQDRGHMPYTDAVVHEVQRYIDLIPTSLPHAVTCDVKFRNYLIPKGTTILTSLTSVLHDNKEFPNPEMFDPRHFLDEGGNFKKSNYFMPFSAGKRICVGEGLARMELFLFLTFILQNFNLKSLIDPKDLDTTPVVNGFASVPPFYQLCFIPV

[21] = target: Peroxisome proliferator-activated receptor gamma/Nuclear receptor coactivator 3 (Homo sapiens, UniProt P37231); format: functional;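 note: agonist potency for raising coactivator recruitment to the receptor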
Peroxisome proliferator-activated receptor gamma/Nuclear receptor coactivator 3, sequence (P37231 whole entry): as the sequence (P37231 whole entry) above
Peroxisome proliferator-activated receptor gamma/Nuclear receptor coactivator 3, sequence (Q9Y6Q9 whole entry, further chain): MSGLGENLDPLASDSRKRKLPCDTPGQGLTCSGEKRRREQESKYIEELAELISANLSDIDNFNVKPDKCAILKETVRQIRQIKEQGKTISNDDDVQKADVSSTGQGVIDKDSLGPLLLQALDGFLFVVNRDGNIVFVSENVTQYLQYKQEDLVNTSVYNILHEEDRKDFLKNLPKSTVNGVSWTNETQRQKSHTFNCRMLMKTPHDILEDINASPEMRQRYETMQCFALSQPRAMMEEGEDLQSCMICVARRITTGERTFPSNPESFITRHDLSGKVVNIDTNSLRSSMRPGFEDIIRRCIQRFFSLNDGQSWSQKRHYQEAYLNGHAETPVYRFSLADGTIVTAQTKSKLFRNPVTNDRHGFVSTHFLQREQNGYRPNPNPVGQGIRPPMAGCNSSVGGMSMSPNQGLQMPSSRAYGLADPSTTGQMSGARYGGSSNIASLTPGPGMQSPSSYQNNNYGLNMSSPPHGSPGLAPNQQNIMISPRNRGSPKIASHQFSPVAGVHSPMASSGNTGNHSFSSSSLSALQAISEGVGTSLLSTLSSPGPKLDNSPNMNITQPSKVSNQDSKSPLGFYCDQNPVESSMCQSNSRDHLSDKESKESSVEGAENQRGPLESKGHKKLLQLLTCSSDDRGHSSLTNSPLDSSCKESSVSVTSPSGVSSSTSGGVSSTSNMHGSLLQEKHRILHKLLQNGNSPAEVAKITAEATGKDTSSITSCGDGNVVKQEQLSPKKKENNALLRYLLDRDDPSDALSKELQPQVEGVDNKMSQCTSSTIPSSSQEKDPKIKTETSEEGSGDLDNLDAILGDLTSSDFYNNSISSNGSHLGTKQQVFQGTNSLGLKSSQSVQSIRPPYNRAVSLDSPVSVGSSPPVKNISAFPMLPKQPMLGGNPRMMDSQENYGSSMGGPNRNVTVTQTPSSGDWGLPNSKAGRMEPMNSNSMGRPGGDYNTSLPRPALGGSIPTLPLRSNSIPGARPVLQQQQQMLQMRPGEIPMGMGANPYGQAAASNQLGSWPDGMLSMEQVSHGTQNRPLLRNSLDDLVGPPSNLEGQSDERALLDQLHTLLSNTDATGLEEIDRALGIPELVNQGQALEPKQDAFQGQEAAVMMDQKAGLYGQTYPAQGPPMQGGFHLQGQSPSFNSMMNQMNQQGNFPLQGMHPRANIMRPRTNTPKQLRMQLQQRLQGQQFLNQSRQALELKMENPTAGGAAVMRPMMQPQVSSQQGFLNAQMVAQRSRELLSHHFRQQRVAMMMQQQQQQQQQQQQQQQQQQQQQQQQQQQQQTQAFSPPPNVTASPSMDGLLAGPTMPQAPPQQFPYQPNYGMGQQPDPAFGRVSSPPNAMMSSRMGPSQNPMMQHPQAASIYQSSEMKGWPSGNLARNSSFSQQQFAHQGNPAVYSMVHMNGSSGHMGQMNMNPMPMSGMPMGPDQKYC

[22] = target: Peroxisome proliferator-activated receptor gamma/Nuclear receptor coactivator 2 (Homo sapiens, UniProt P37231); format: functional;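 note: agonist potency for raising coactivator recruitment to the receptor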
Cytochrome P450 2C19 [23] = target: T7, Cytochrome P450 2C19; experiment: qHTS Assay for Inhibitors and Substrates of Cytochrome P450 2C19. [Related pubchem assays: 410 ]; format: ADME; conditions: read-out: Potency

Protein Tat, sequence (P04608 whole entry): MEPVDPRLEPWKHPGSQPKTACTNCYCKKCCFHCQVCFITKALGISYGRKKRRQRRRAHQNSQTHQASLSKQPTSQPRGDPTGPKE

Structure (SMILES): NNc1nc(-c2ccccc2)nc2sc3c(c12)CCCC3
EC50 [6]: > 67.5 µM (inactive) | EC50 (cells [7]): > 67.5 µM (inactive)

Structure (SMILES): CC(=O)NC(=S)Nc1ccccc1C(=O)NC1CCCCC1
EC50 [9]: > 67.6 µM (inactive) | IC50 [10]: > 67.6 µM (inactive)

Structure (SMILES): O=c1cc(CN2CCN(C/C=C/c3ccccc3)CC2)c2cc(O)ccc2o1
EC50 (cells [11]): 0.101 µM (active) | EC50 [12]: > 60 µM (not active) | EC50 [13]: < 0.1 µM (active)

Structure (SMILES): Cc1ccc(C(=O)OCc2cc3ccccc3nc2O)cc1
IC50 [14]: > 93.1 µM (not active)

Structure (SMILES): O=C(CCNC(=O)c1ccccc1Cl)Nc1ccc(Br)c(C(F)(F)F)c1
EC50 [9]: > 67.5 µM (inactive) | IC50 [10]: > 67.5 µM (inactive)

Structure (SMILES): Cc1ccc(NC(=O)c2sc3ccccc3c2Cl)nc1
AC50 (Cytochrome P450 2D6): 3.16 µM (inconclusive) | EC50 [6]: > 67.5 µM (inactive) | AC50 [15]: 2.52 µM (active) | AC50 [16]: > 52 µM (inactive) | AC50 [17]: 3.36 µM (active) | AC50 [18]: 50.8 µM (active) | EC50 [19]: 53.2 µM (not active) | AC50 (Cytochrome P450 2C19 [20]): 7.94 µM (inconclusive) | EC50 (cells [7]): > 67.5 µM (inactive) | EC50 [21]: 52 µM (not active) | EC50 [22]: 41.5 µM (not active)

Structure (SMILES): COc1ccc(OC2C=CC(C#Cc3ccccc3)OC2CO)cc1 (configuration not stated)
AC50 (Cytochrome P450 2C19 [23]): 3.98 µM (inconclusive)

Now from value to compound, other results behind:

IC50 (Protein Tat): > 100 µM (active) | IC50 [1]: > 100 µM (active)
Structure (SMILES): O=C(N/N=C/c1ccc[nH]1)c1cccnc1

IC50 [3]: 6.21 µM (active) | IC50 (Caspase-3): 43.8 µM (active) | AC50 [4]: 10.7 µM (active) | IC50 [5]: 18.5 µM (active)
Structure (SMILES): Cc1c(NC(=O)c2ccc(NC(=O)C3CC3)cc2)cccc1C(=O)O
IC50 [2]: 25.8 µM (active)

IC50 [8]: > 100 µM (not active)
Structure (SMILES): CC(=O)[C@@H]1[C@@H]2C(=O)N(c3ccc(F)c(Cl)c3)C(=O)[C@@H]2C2c3ccccc3C=CN21 (some centres not stated)

IC50 (Estrogen receptor beta): > 50 µM (not active)
Structure (SMILES): CCN1CCC(C(N)=O)CC1

AC50 [4]: > 30 µM (inactive)
Structure (SMILES): COC(=O)[C@]12CCCCC=C1N(Cc1ccc(Cl)cc1Cl)C(=O)[C@H](CC(=O)NCc1cccc(C(F)(F)F)c1)C2
